Results on one compound are retold here after patent publication US20100021398A1, “COMPOSITIONS AND METHODS FOR LIGHTENING SKIN AND PROTECTING SKIN FROM ULTRAVIOLET RADIATION WITH GLUTATHIONE” (priority 2008, published 2010).

Structures are written as SMILES.

Series [1] concerns Mitochondrial SOD 2. The series can be described thus: up-regulation of anti-oxidant enzyme SOD by glutathione. In kind it is cell-based. Particulars: glutathione up-regulating anti-oxidant enzymes.
For series [2] the following is noted: unmodified glutathione, cited from earlier work.

Compound `N[C@@H](CCC(=O)N[C@@H](CS)C(=O)NCC(=O)O)C(=O)O` [glutathione] registered an SOD increase in series [1] of 182%. The “half-life in the blood stream” value in series [2] (blood stream) is “about a minute and a half”. For the same compound, the “half-life in the blood” value in series [2] (blood) is given as “around 120 seconds”.
